Assay results from patent US9718816B2, “1-phenoxy-3-(alkylamino)-propan-2-ol derivatives as CARM1 inhibitors and uses thereof” (Epizyme, Inc., priority 2013, dated 2017).

Key:
[1] = tested on: asymmetric di-methyl PABP1 in RKO cells; assay: RKO methylation assay (In Cell Western, asymmetric di-methyl PABP1); format: cell-based; conditions: Homo sapiens, 48 hours incubation, read-out: Cellular IC50
Text: RKO adherent cells were purchased from ATCC (American Type Culture Collection), Manassas, Va., USA. DMEM/Glutamax medium, penicillin-streptomycin, heat inactivated fetal bovine serum, 0.05% trypsin and D-PBS were purchased from Life Technologies, Grand Island, N.Y., USA. Odyssey blocking buffer, 800CW goat anti-rabbit IgG (H+L) antibody, and Licor Odyssey infrared scanner were purchased from Licor Biosciences, Lincoln, Nebr., USA. Asymmetric di-methyl PABP1 antibody was purchased from Cell Signaling Technology, Danvers, Mass., USA. Methanol was purchased from VWR, Franklin, Mass., USA. 10% Tween 20 was purchased from KPL, Inc., Gaithersburg, Md., USA. Paraformaldehyde (PFA) was purchased from EM Sciences. DRAQ5 was purchased from Biostatus Limited, Leicestershire, UK. […]
Calculations. First, the ratio for each well was determined by:
Each plate included fourteen control wells of DMSO only treatment (minimum inhibition) as well as fourteen control wells for maximum inhibition treated with 20 μM of a reference compound. The average of the ratio values for each control type was calculated and used to determine the percent […] for each test well in the plate. […]
Percent inhibition was determined and IC50 curves were generated using triplicate wells per concentration of compound.

[2] = molecular target: T1, CARM1 (Homo sapiens, UniProt Q86X55); assay: CARM1 enzyme assay on peptide substrate (3H-SAM Flashplate); format: biochemical; conditions: CARM1 0.25 nM, 3H-SAM 30 nM, peptide 250 nM, 30 min preincubation; read-out: Biochem IC50
T1 construct: Flag-CARM1-His; made in house; host or cells: HEK 293F cells infected with recombinant baculovirus (pFastBacMam)
T1 sequence (Q86X55 1-585 isoform Q86X55-1): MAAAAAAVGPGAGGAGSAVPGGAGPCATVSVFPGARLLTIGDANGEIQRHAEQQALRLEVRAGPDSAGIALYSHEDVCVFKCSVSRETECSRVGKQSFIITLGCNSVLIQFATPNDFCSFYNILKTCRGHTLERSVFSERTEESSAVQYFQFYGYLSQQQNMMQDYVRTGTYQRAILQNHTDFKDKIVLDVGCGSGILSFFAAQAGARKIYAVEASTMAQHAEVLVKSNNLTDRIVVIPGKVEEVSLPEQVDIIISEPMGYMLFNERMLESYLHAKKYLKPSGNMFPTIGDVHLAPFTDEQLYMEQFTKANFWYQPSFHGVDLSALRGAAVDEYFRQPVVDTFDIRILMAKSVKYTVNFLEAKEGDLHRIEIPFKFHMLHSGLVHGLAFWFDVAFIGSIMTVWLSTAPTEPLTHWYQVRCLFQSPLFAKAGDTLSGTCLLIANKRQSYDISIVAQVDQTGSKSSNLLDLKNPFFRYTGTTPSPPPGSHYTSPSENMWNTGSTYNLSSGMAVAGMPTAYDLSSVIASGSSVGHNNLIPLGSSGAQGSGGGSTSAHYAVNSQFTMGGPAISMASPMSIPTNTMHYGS
Text: S-adenosylmethionine (SAM), S-adenosylhomocysteine (SAH), bicine, Tween20, dimethylsulfoxide (DMSO), bovine skin gelatin (BSG), sodium butyrate and Tris(2-carboxyethyl)phosphine hydrochloride solution (TCEP) were purchased from Sigma-Aldrich at the highest level of purity possible. ^3H-SAM was purchase from American Radiolabeled Chemicals with a specific activity of 80 Ci/mmol. 384-well streptavidin Flashplates were purchased from PerkinElmer.
Peptide representative of human histone H3 residues 16-30 was synthesized with an N-terminal linker-affinity tag motif and a C-terminal amide cap by 21^St Century Biochemicals. The peptide was purified by high-performance liquid chromatography (HPLC) to greater than 95% purity and confirmed by liquid chromatography mass spectrometry (LC-MS). The sequence was Biot-Ahx-[…]-amide and contained a monomethylated arginine at position 26 (SEQ ID NO.:1).
Human CARM1 (PRMT4) (NM_199141.1) transcript clone was amplified from an HEK 293 cDNA library, incorporating a flanking 5′ sequence encoding a FLAG tag ([…]) (SEQ ID NO.:2) fused directly to Ala 2 of CARM1 and 3′ sequence encoding a hexa His sequence ([…]) (SEQ ID NO.:3) fused directly to Ser 608. The gene sequence encoding isoform1 containing a deletion of amino acids 539-561 was amplified subsequently and subcloned into pFastBacMam (Viva Biotech). Protein Expression
Recombinant baculovirus were generated according to Bac-to-Bac kit instructions (Life Technologies). Protein over-expression was accomplished by infecting exponentially growing HEK 293F cell culture at 1.3×10^6 cell/ml with virus (MOI=10) in the presence of 8 mM sodium butyrate. Infections were carried out at 37° C. for 48 hours, harvested by centrifugation, and stored at −80° C. for purification.
Column was washed with 500 mM NaCl in buffer A and Flag-CARM1-His was eluted with 200 ug/ml FLAG peptide in buffer A. Pooled fractions were dialyzed in 20 mM Tris, 150 mM NaCl, 5% glycerol and 1 mM DTT, pH 7.8. The purity of recovered protein was 94.
General Procedure for CARM1 Enzyme Assays on Peptide Substrates
The assays were all performed in a buffer consisting of 20 mM Bicine (pH=7.6), 1 mM TCEP, 0.005% BSG, and 0.002% Tween 20, prepared on the day of use. Compounds in 100% DMSO (1 ul) were spotted into a polypropylene 384-well V-bottom plates (Greiner) using a Platemate Plus outfitted with a 384-channel head (Thermo Scientific). DMSO (1 ul) was added to Columns 11, 12, 23, 24, rows A-H for the maximum signal control and 1 ul of SAH, a known product and inhibitor of CARM1, was added to columns 11, 12, 23, 24, rows I-P for the minimum signal control. A cocktail (40 ul) containing the CARM1 enzyme was added by Multidrop Combi (Thermo-Fisher). The compounds were allowed to incubate with CARM1 for 30 min at room temperature, then a cocktail (10 ul) containing ^3H-SAM and peptide was added to initiate the reaction (final volume=51 ul). The final concentrations of the components were as follows: CARM1 was 0.25 nM, ^3H-SAM was 30 nM, peptide was 250 nM, SAH in the minimum signal control wells was 1 mM, and the DMSO concentration was 2%. The assays were stopped by the addition of non-radiolabeled SAM (10 ul) to a final concentration of 300 uM, which dilutes the ^3H-SAM to a level where its incorporation into the peptide substrate is no longer detectable. 50 ul of the reaction in the 384-well polypropylene plate was then transferred to a 384-well Flashplate and the biotinylated peptides were allowed to bind to the streptavidin surface for at least 1 hour before being washed once with 0.1% Tween20 in a Biotek ELx405 plate washer. The plates were then read in a PerkinElmer TopCount plate reader to measure the quantity of ^3H-labeled peptide bound to the Flashplate surface, measured as disintegrations per minute (dpm) or alternatively, referred to as counts per minute (cpm). […]

| Structure (SMILES) | IC50 [1] [nM] | IC50 [2] [nM] |
| --- | --- | --- |
| CNCC(O)COc1cc(OC)cc(-c2cc(N3CCOCC3)n3ncc(C4CC4)c3n2)c1 (stereo not shown) [Example 18-6] | 5000 to 10000 |  |
| CNCC(O)COc1cccc(-c2cc(NCCCNC(=O)c3cccnc3)c3cnn(C(C)C)c3n2)c1 (stereo not shown) [Example 59-1] |  | 100 to 1000 |
| CNCC(O)COc1cccc(-c2cc(NCCCNC(=O)c3ccn(C)n3)c3cnn(C(C)C)c3n2)c1 (stereo not shown) [Example 60-1] |  | 100 to 1000 |
| CNCC(O)COc1cccc(-c2cc(NCCCCNC(=O)c3cccnc3)c3cnn(C(C)C)c3n2)c1 (stereo not shown) [Example 61-1] |  | 100 to 1000 |
| CNCC(O)COc1cccc(-c2cc(NCCCCNC(=O)c3ccn(C)n3)c3cnn(C(C)C)c3n2)c1 (stereo not shown) [Example 62-1] |  | 100 to 1000 |
| CNCC(O)COc1cccc(-c2cc(NCCCCCNC(=O)c3cccnc3)c3cnn(C(C)C)c3n2)c1 (stereo not shown) [Example 63-1] |  | 100 to 1000 |
| CNCC(O)COc1cccc(-c2cc(NCCCCCCNC(=O)c3cccnc3)c3cnn(C(C)C)c3n2)c1 (stereo not shown) [Example 65-1] |  | 100 to 1000 |
| CNCC(O)COc1cccc(-c2cc(NCCCCCCNC(=O)c3ccn(C)n3)c3cnn(C(C)C)c3n2)c1 (stereo not shown) [Example 66-1] |  | 100 to 1000 |

Now from value to molecule:

| IC50 [1] [nM] | IC50 [2] [nM] | Structure (SMILES) |
| --- | --- | --- |
|  | < 100 | COc1nc(C)cc(C)c1CNc1cc(-c2cccc(OCC(O)CN)c2)nc2c1cnn2C(C)C (stereo not shown) [Example 55-1] |
|  | 100 to 1000 | CNCC(O)COc1cccc(-c2cc(NCCNC(=O)c3cccnc3)c3cnn(C(C)C)c3n2)c1 (stereo not shown) [Example 56-1] |
|  | 100 to 1000 | CNCC(O)COc1cccc(-c2cc(NCc3c(C)cc(C)nc3OC)c3cnn(C(C)C)c3n2)c1 (stereo not shown) [Example 57-1] |
|  | 100 to 1000 | CNCC(O)COc1cccc(-c2cc(NCCNC(=O)c3ccn(C)n3)c3cnn(C(C)C)c3n2)c1 (stereo not shown) [Example 58-1] |
|  | < 100 | CNCC(O)COc1cccc(-c2cc(NCCCCCNC(=O)c3ccn(C)n3)c3cnn(C(C)C)c3n2)c1 (stereo not shown) [Example 64-1] |
